The values that follow are results of earlier work, collected in US20090145189A1, “Composition and a manufacturing method thereof” (priority 2007, published 2009).

For data set [1] the following is noted: concentrations above 40 wt %, such as 50 wt %.

The structures appear in SMILES notation.

Turning to `O=C(O)CN(CCN(CC(=O)O)CC(=O)O)CCN(CC(=O)O)CC(=O)O` [DTPA, diethylenetriamine-N,N,N-penta-acetic acid], the Water solubility result is listed as “low water solubility”.

On to `O=C([O-])CN(CCN(CC(=O)[O-])CC(=O)[O-])CCN(CC(=O)[O-])CC(=O)[O-].[Na+].[Na+].[Na+].[Na+].[Na+]` [DTPANa5, penta sodium salt of diethylenetriamine-N,N,N-penta-acetic acid], for which the Viscosity entry in data set [1] was “too viscous to allow convenient handling”.
